Test results from ChEMBL document CHEMBL3112489 (Bioorg Med Chem Lett, 2014).

Legend:
[1] = Inhibition of Legionella pneumophila carbonic anhydrase 2 preincubated for 15 mins by stopped-flow CO2 hydrase assay
[2] = Inhibition of Legionella pneumophila carbonic anhydrase 1 preincubated for 15 mins by stopped-flow CO2 hydrase assay

SMILES	Ki [1] [µM]	Ki [2] [µM]
O=S(=O)([O-])[O-].[Na+].[Na+] [SODIUM SULFATE ANHYDROUS]	96500	77900
NS(N)(=O)=O [SULFAMIDE]	–	94
[I-].[Na+] [SODIUM IODIDE]	59100	320
O=S(=O)(O)NS(=O)(=O)O [SODIUM IMINODISULFONATE]	590	1170
O=[Se](=O)(O)O [SODIUM SELENATE]	660	7300
O=NO [SODIUM NITRITE]	5800	7900
O=P(O)(O)OP(=O)(O)O [SODIUM PYROPHOSPHATE]	830	940
[F-].[Na+] [SODIUM FLUORIDE]	770	910
O=S(=O)(O)OOS(=O)(=O)O [SODIUM PERSULFATE]	570	850
NS(=O)(=O)O [SULFAMATE]	13	76
[Br-].[Na+] [SODIUM BROMIDE]	8000	650
O=C([O-])[O-].[Na+].[Na+] [SODIUM CARBONATE]	4800	4700
CCN(CC)C(=S)S [DITIOCARB SODIUM]	2	6
CC(=O)Nc1nnc(S(N)(=O)=O)s1 [ACETAZOLAMIDE]	0.036	0.095
O=[Te](=O)(O)O [SODIUM TELLURATE]	290	240
N=C=S [SODIUM ISOTHIOCYANATE]	880	520
N=C=[Se] [SODIUM ISOSELENOCYANATE]	660	980
F[B-](F)(F)F.[Na+] [SODIUM TETRAFLUOROBORATE]	> 200000	> 200000
[O-][Cl+3]([O-])([O-])O [SODIUM PERCHLORATE]	> 200000	> 200000
O=C([O-])O.[Na+] [SODIUM BICARBONATE]	6600	3500
[N-]=[N+]=[N-] [SODIUM AZIDE]	450	77
S=C(S)S [SODIUM CARBONOTRITHIOATE]	620	530
O=[As](O)(O)c1ccccc1 [PHENYLARSONIC ACID]	8	84
O=S([O-])O.[Na+] [SODIUM BISULFITE]	7200	6600
OB(O)c1ccccc1 [PHENYLBORONIC ACID]	6	65
N#CO [SODIUM CYANATE]	960	660
[Cl-].[Na+] [SODIUM CHLORIDE]	810	790
O=[N+]([O-])[O-].[Na+] [SODIUM NITRATE]	30100	7600
S [SODIUM HYDROSULFIDE]	510	76
O=BOB(O)OB(O)OB=O [SODIUM TETRABORATE]	550	600
